Measurements from patent publication US4997926A, “Deaminase-stable anti-retroviral 2-halo-2',3'-dideoxy” (Scripps Clinic and Research Foundation, priority 1987, dated 1991).

Experiments:
[1] = test system: deoxycytidine kinase and adenosine kinase deficient CEM T cells (clone AraC-8DM10-5); format: in vitro ADME, human; conditions: 3 uM, 4 hours
Method: (§1) ^1 Human CEM T cells, or variants deficient in either deoxycytidine
(§2) kinase, or deoxycytidine kinase plus adenosine kinase, were incubated at
(§3) density of 5 × 10^7 cells/ml in medium containing 3 uM [8^3
(§4) H2-chloro-2',3dideoxyadenosine. After 4 hours, the nucleotides in the
(§5) methanolsoluble extracts were determined after separation by HPLC, as
(§6) described in the Materials and Methods.
(§7) The human T lymphoblastoid cell line, CCRF-CEM, and mutants deficient in either deoxycytidine kinase (clone AraC-8D), or deoxycytidine kinase plus adenosine kinase (clone AraC-8DM10-5) were obtained and propagated as described previously [Foley et al., (1965) Cancer, 18:552-529 and Hershfield et al., (1982) J. Biol. Chem., 257:6380-6386]. For metabolic studies, the cells were cultured in RPMI 1640 medium supplemented with 2 mM L-glutamine and 10 percent fetal bovine serum at a density of 2×10^7 cells/ml in the presence of radiolabelled dideoxynucleosides, as indicated earlier. Some cultures were pre-incubatedfor 30 minutes either with 5 uM 2'-deoxycoformycin or 50 uM coformycin. After 4 hours of incubation the cells were harvested by centrifugation.
(§8) The cell pellets were washed with Hank's balanced salt solution at 4 degrees C., and extracted with 1 ml 60 percent methanol/water at -20 degrees C. for 10 minutes. Initial studies included 2',3'-dideoxyadenosine5'-triphosphate as an internal recovery marker. The nucleotides were fractionated by high performance liquid chromatography on an Whatman Partisil-10 SAX column, applying a gradient of zero to 100 percent buffer B in buffer A. Buffer A was 7 mM potassium phosphate pH 3.4. Buffer B was 0.5 M potassium phosphate, pH 3.4, one M KCl. The flow rate was 1.5 ml/minute, 1 minute fractions were collected. Buffer A was used alone for the first ten fractions after which elution with Buffer B began and was continued through fraction thirty, after which the eluting buffer was completely Buffer B. The nucleoside was eluted by about fraction six. The monophosphate eluted between about fractions fifteen and eighteen, the diphosphate between about fractions twenty-seven and thirty-two, and the triphosphate eluted between about fractions fifty-one and about sixty-five.

wild type CEM T cells = format: in vitro ADME, human
Method: Extracts of wild type CEM cells that had been incubated with 3 uM [8-^3 H]-2-chloro-2',3'-dideoxyadenosine for 4 hours were fractionated by ion exchange high performance liquid chromatography (HPLC). Detected radioactive peaks corresponded to the free deoxynucleoside and to the 5'-mono-, di- and tri-phosphates, respectively. The total intracellular 2-chloro-2',3'-dideoxynucleotide content was 30 pmols/10^8 cells. The identity of the peaks was confirmed by enzymatic dephosphorylation, and reverse phase HPLC in the presence of authentic 2-chloro-2',3'-dideoxyadenosine.
as §1, §2, §3, §4, §5, §6, §7, §8

[2] = test system: HIV in deoxycytidine kinase-deficient CEM variant; test: HIV p24 (gag) antigen in deoxycytidine kinase deficient CEM variant; format: cell-based
Description: Open symbols show the effects of the respective same dideoxynucelosides on HIV replication in a deoxycytidine kinase-deficient CEM variant.
HIV infection of the CEM T lymphoblastoid cell line was monitored by the release of the HIV p24 (gag) protein into the medium, exactly as described previously [Cleveland et al. (1987) J. Clin. Microbiol., 25:416-420 and Fishbein et al. (1981) Biochem. Med., 26:377-386]. The growth inhibiting effects of the nucleosides toward CEM lymphoblasts, and toward the deoxycytidine kinase deficient mutant, were also monitored as described earlier [Carson et al. (1980) Proc. Natl. Acad. Sci. USA, 77:6865-6869].

[3] = test system: HIV in PHA-stimulated lymphocytes; test: HIV-infected PHA-stimulated lymphocytes, antigen ELISA of supernate, positive cultures; format: cell-based; conditions: 10 uM, ten cultures, ELISA OD490
Method: The activities of 2-halo-2',3'-dideoxyadenosine (2-F-,2-Cl- or 2-Br-ddA) derivatives were compared to those of 2-fluoro- and 2-chloro-2',3'-dideoxyinosine (2-F- and 2-Cl-ddI) and 2',3-dideoxyadenosine (ddA) against HIV-infected, antigen ELISA assay described herein.
The PHA-stimulated lymphocytes were suspended in media containing cell-free HIV, and were incubated overnight (about 18 hours). The cells were thereafter pelleted resuspended in a growth medium as pharmacologically acceptable carrier containing one of the above compounds at a 10 uM concentration, or with no added compound as a control, and plated at 10^5 cells per microculture; the medium was also supplemented with interleukin-2. The release of virus into the supernate was measured by ELISA at 4, 8 and 12 days, post-inoculation. Each microculture plate also contained ten virus-free cultures that served as further controls. Ten cell cultures were used for each compound.
Cultures were scored positive if the optical density in the ELISA (OD490) was greater than two standard deviations above the readings for the virus-free cultures. This method is adapted from that of McDougal et al. (1985) J. Immunol. 135:3151.

uninfected ATH8 cells = conditions: normal, read-out: Dose required to reduce the viability by 50 percent; cited from earlier work
HIV in ATH8 cells = conditions: HIV-infected ATH8 cells; read-out: Concentration providing a 50 percent protection level against the cytopathic effect of HIV; cited from earlier work
HIV in MDM cells = test: Synthesis of HIV p24 (gag) antigen in monocyte derived macrophages (MDM), 3-day assay; format: cell-based; conditions: 0.1-100 uM
Description: The ability of AZT, ddC and ddA to inhibit synthesis of the p24 (gag) antigen of HIV in CEM and MDM cells was also examined. For CEM cells, the results for all three compounds were similar to those discussed in Mitsuya et al. (1987) Nature, 325:773-778 with ddC providing the most inhibitory effect at the lowest concentration, followed by AZT, followed by ddA in a 3-day assay.

[4] = acid conditions; cited from earlier work

| SMILES | Nucleotide Formed, Diphosphate [1] [pmols/10^8 cells/4 hrs] | Nucleotide Formed, Monophosphate [1] [pmols/10^8 cells/4 hrs] | Nucleotide Formed, Triphosphate [1] [pmols/10^8 cells/4 hrs] | intracellular dideoxynucleotide content after 4 hours (wild type CEM T cells; CEM 2 × 10^7 cells/ml, 37 degrees C., 3 uM 2-Cl-ddA or 2 uM ddA) [pmols/10^8 cells] | Nucleotide Formed, Diphosphate (wild type CEM T cells; Wild Type CEM, 3 uM, 4 hours) [pmols/10^8 cells/4 hrs] | Nucleotide Formed, Triphosphate (wild type CEM T cells; Wild Type CEM, 3 uM, 4 hours) [pmols/10^8 cells/4 hrs] | total intracellular 2-chloro-2',3'-dideoxynucleotide content (wild type CEM T cells; Wild Type CEM, 3 uM, 4 hours) [pmols/10^8 cells] | Nucleotide Formed, Monophosphate (wild type CEM T cells; Wild Type CEM, 3 uM, 4 hours, 5 × 10^7 cells/ml) [pmols/10^8 cells/4 hrs] | protection from HIV infection, p24 (gag) antigen detection [2] | positive cultures on day 4 [3] | positive cultures on day 8 [3] [%] | positive cultures on day 12 [3] [%] | CC50 (uninfected ATH8 cells) [nM] | EC50 (HIV in ATH8 cells) [nM] | inhibition of p24 (gag) production from MDM cells (HIV in MDM cells) | rate of acid hydrolysis relative to adenosine [4] | 2',3'-dideoxyadenosine uptake (wild type CEM T cells) |
| --- | --- | --- | --- | --- | --- | --- | --- | --- | --- | --- | --- | --- | --- | --- | --- | --- | --- |
| Nc1nc(Cl)nc2c1ncn2[C@H]1CC[C@@H](CO)O1 [2-chloro-2',3'-dideoxyadenosine] | 0.7 | 0.9 | 2.5 | ~30 | 2.8 | 24.3 | 30 | 3.0 |  |  |  |  |  |  |  |  |  |
| Nc1ncnc2c1ncn2[C@H]1CC[C@@H](CO)O1 [2',3'-dideoxyadenosine, reference compound] |  |  |  |  |  |  |  |  | equivalent anti-HIV activity | no positives | 100 | 100 | > 500000 | 2700 | none of those compounds provided any inhibition | about 40,000 times faster | 20-30 pmols/10^8 cells |
